Reference: patent US20080241904A1, “PROCESS FOR PRODUCING ISOMALTOSE AND USES THEREOF” (KABUSHIKI KAISHA HAYASHIBARA SEIBUTSU KAGAKU KENKYUJO, priority 2001, published 2008)

Tests used:
[1] = test system: α-isomaltosyl-transferring enzyme; assay: Influence of metal ions on activity of α-isomaltosyl-transferring enzyme (Strain C9); format: biochemical, Bacillus globisporus C9; details: for Relative activity: in the presence of 1 mM of each metal ion, None = 100; for Effect on enzyme activity (in words): 1 mM, summary of Table 4
Procedure: (§1) The α-isomaltosyl-transferring enzyme was assayed for enzymatic activity by dissolving panose in 100 mM acetate buffer (pH 6.0) to give a concentration of 2% (w/v) for a substrate solution, adding a 0.5 ml of an enzyme solution to 0.5 ml of the substrate solution, enzymatically reacting the mixture solution at 35° C. for 30 min, suspending the reaction mixture by boiling for 10 min, and quantifying glucose, among the cyclotetrasaccharide and glucose formed in the reaction mixture, by the glucose oxidase method. One unit activity of the α-isomaltosyl-transferring enzyme is defined as the enzyme amount that forms one micromole of glucose per minute under the above enzymatic reaction conditions.
(§2) The influence of metal ions on the activity of α-isomaltosyl-transferring enzyme was examined in the presence of 1 mM of each metal-ion according to the assay for the enzyme activity.

[2] = test system: α-isomaltosylglucosaccharide-forming enzyme; assay: Influence of metal ions on enzyme activity, Experiment 4-2 (Strain C11); format: biochemical, Bacillus globisporus C11; details: for Relative activity: in the presence of 1 mM of each metal ion, None = 100; for Effect on enzyme activity (in words): 1 mM, summary of Table 6
[3] = test system: α-isomaltosylglucosaccharide-forming enzyme; assay: Influence of metal ions on activity of α-isomaltosylglucosaccharide-forming enzyme (Strain C9); format: biochemical, Bacillus globisporus C9; details: for Effect on enzyme activity (in words): 1 mM, summary of Table 2; for Relative activity: in the presence of 1 mM of each metal ion, None = 100
Procedure: The activities of these enzymes were assayed as follows: The α-isomaltosylglucosaccharide-forming enzyme of the present invention was assayed for enzymatic activity by dissolving maltotriose in 100 mM acetate buffer (pH 6.0) to give a concentration of 2% (w/v) for a substrate solution, adding a 0.5 ml of an enzyme solution to a 0.5 ml of the substrate solution, enzymatically reacting the mixture solution at 35° C. for 60 min, suspending the reaction mixture by heating at 100° C. for 10 min, and quantifying maltose, among the isomaltosyl maltose and maltose formed in the reaction mixture, by high-performance liquid chromatography (abbreviated as “HPLC” hereinafter). HPLC was carried out using “YMC PACK ODS-AQ303 column” commercialized by YMC Co., Ltd., Tokyo, Japan, at a column temperature of 40° C. and a flow rate of 0.5 ml/min of water; and using “RI-8012”, a differential refractometer commercialized by Tosoh Corporation, Tokyo, Japan. One unit activity of the α-isomaltosylglucosaccharide-forming enzyme is defined as the enzyme amount that forms one micromole of maltose per minute under the above enzymatic reaction conditions.
The influence of metal ions on the activity of α-isomaltosylglucosaccharide-forming enzyme was examined in the presence of 1 mM of each metal-ion according to the assay for the enzyme activity.

[4] = test system: α-isomaltosyl-transferring enzyme; assay: Influence of metal ions on activity of α-isomaltosyl-transferring enzyme (Strain C11); format: biochemical, Bacillus globisporus C11; details: for Relative activity: in the presence of 1 mM of each metal ion, None = 100; for Effect on enzyme activity (in words): 1 mM, summary of Table 8
Procedure: as §1, §2

[5] = test system: α-isomaltosylglucosaccharide-forming enzyme from Bacillus globisporus C9; assay: Action of α-isomaltosylglucosaccharide-forming enzyme on saccharides as substrates (TLC), enzyme of Strain C9; format: biochemical; parameters: key: −: it showed no change; +: it showed a slight reduction of the color of substrate spot and the formation of other reaction product; ++: it showed a high reduction of the color of substrate spot and the formation of other reaction product; +++: it showed a substantial disappearance of the color of substrate spot and the formation of other reaction product; details: two units/g substrate, substrate 2% (w/v), 30° C., pH 6.0, 24 hours
Procedure: (§3) The action of α-isomaltosylglucosaccharide-forming enzyme on saccharides as substrates was tested. First, a solution of maltose, maltotriose, maltotetraose, maltopentaose, maltohexaose, maltoheptaose, isomaltose, isomaltotriose, panose, isopanose, α,α-trehalose (may be abbreviated as “trehalose” hereinafter), kojibiose, nigerose, neotrehalose, cellobiose, gentibiose, maltitol, maltotriitol, lactose, sucrose, erlose, selaginose, maltosyl glucoside, or isomaltosyl glucoside was prepared. To each of the above solutions was added two units/g substrate of the purified specimen of α-isomaltosylglucosaccharide-forming enzyme from Bacillus globisporus C9 in Experiment 2-1 or Bacillus globisporus C11 in Experiment 4-1, and each resulting solution was adjusted to give a substrate concentration of 2% (w/v) and incubated at 30° C. and pH 6.0 for 24 hours. The solutions before and after the enzymatic reactions were respectively subjected to thin-layer chromatography (abbreviated as “TLC” hereinafter). TLC was carried out in such a manner of separating saccharides by developing the solutions twice each using, as a developer, a mixture solution of n-butanol, pyridine, and water (=6:4:1), and, as a thin-layer plate, “[…] 60”, an aluminum plate (20×20 cm) for TLC commercialized by Merck & Co., Inc., Rahway, USA.; detecting the total saccharides in each mixture solution by spraying a mixture of sulfuric acid and methanol onto the aluminum plates to develop color of the total saccharides and detecting non-reducing saccharides in each mixture solution by the diphenylamine-aniline method.

[6] = test system: α-isomaltosylglucosaccharide-forming enzyme from Bacillus globisporus C11; assay: Action of α-isomaltosylglucosaccharide-forming enzyme on saccharides as substrates (TLC), enzyme of Strain C11; format: biochemical; parameters: key: −: it showed no change; +: it showed a slight reduction of the color of substrate spot and the formation of other reaction product; ++: it showed a high reduction of the color of substrate spot and the formation of other reaction product; +++: it showed a substantial disappearance of the color of substrate spot and the formation of other reaction product; details: two units/g substrate, substrate 2% (w/v), 30° C., pH 6.0, 24 hours
Procedure: as §3

[7] = test system: α-isomaltosylglucosaccharide-forming enzyme from Bacillus globisporus C9 strain; assay: Specificity of saccharide transferring reaction acceptor, enzyme of Strain C9; format: biochemical; details: 1.6% acceptor, 4% PINE-DEX #100 as donor, one unit/g donor, 30° C., pH 6.0, 24 hours; GLC or HPLC
Procedure: (§4) Using different saccharides, it was tested whether the saccharides were used as saccharide transferring reaction acceptors for the α-isomaltosylglucosaccharide-forming enzyme. A 1.6% solution, as a solution of saccharide transferring reaction acceptor, of D-glucose, D-xylose, L-xylose, D-galactose, D-fructose, D-mannose, D-arabinose, D-fucose, L-sorbose, L-rhamnose, methyl-α-glucopyranoside (methyl-α-glucose), methyl-β-glucopyranoside ([…]), N-acetyl-glucosamine, sorbitol, α,α-trehalose, isomaltose, isomaltotriose, cellobiose, gentibiose, maltitol, lactose, sucrose, α-cyclodextrin, β-cyclodextrin, or γ-cyclodextrin, was prepared. To each solution with a saccharide concentration was added “PINE-DEX #100”, a partial starch hydrolysate, as a saccharide donor, to give a concentration of 4%, and admixed with one unit/g saccharide donor, d.s.b., of either of purified specimens of α-isomaltosylglucosaccharide-forming enzyme from Bacillus globisporus C9 strain obtained by the method in Experiment 2-1, Bacillus globisporus C11 strain obtained by the method in Experiment 4-1. The resulting mixture solutions were incubated at 30° C. and pH 6.0 except that the enzyme from Arthrobacter globiformis A19 strain was incubated at pH 8.4 for 24 hours. The reaction mixtures of the post-enzymatic reactions were analyzed on gas chromatography (abbreviated as “GLC” hereinafter) for monosaccharides and disaccharides as acceptors, and on HPLC for trisaccharides as acceptors to confirm whether these saccharides could be used as their saccharide transferring reaction acceptors. In the case of performing GLC, the following apparatuses and conditions are used: GLC apparatus, “GC-16A” commercialized by Shimadzu Corporation, Tokyo, Japan; column, a stainless-steel column, 3 mm in diameter and 2 m in length, packed with 2% “SILICONE OV-17/CHROMOSOLV W”, commercialized by GL Sciences Inc., Tokyo, Japan; carrier gas, nitrogen gas at a flow rate of 40 ml/min under temperature conditions of increasing from 160° C. to 320° C. at an increasing temperature rate of 7.5° C./min; and detection, a hydrogen flame ionization detector.
(§5) In the case of HPLC analysis, the apparatuses and conditions used were: HPLC apparatus, “CCPD” commercialized by Tosoh Corporation, Tokyo, Japan; column, “ODS-AQ-303” commercialized by YMC Co., Ltd., Tokyo, Japan; eluent, water at a flow rate of 0.5 ml/min; and detection, a differential refractometer.

[8] = test system: α-isomaltosylglucosaccharide-forming enzyme from Bacillus globisporus C11 strain; assay: Specificity of saccharide transferring reaction acceptor, enzyme of Strain C11; format: biochemical; details: 1.6% acceptor, 4% PINE-DEX #100 as donor, one unit/g donor, 30° C., pH 6.0, 24 hours; GLC or HPLC
Procedure: as §4, §5

Compound	Relative activity [1] [%]	Relative activity ([1]; listed as Fe^3+) [%]	Relative activity [2] [%]	Relative activity ([2]; listed as Fe^3+) [%]	Effect on enzyme activity (in words) [3]	Relative activity [3] [%]	Effect on enzyme activity (in words) [2]	Relative activity [4] [%]	Effect on enzyme activity (in words) [1]	Effect on enzyme activity (in words) [4]	Enzymatic action, Enzyme of Strain C9 [5]	Enzymatic action, Enzyme of Strain C11 [6]	Product of saccharide transferring reaction, Enzyme of Strain C9 [7]	Product of saccharide transferring reaction, Enzyme of Strain C11 [8]
[Fe+2] [Fe^2+]	96	105	100	102										
[Sr+2] [Sr^2+]	101		83		inhibited	80	inhibited	93						
[Hg+2] [Hg^2+]	1		4		greatly inhibited	4	greatly inhibited	2	greatly inhibited	greatly inhibited				
[Ni+2] [Ni^2+]	102		93					89						
[Ca+2] [Ca^2+]	101		109		activated	115	activated	91	not activated	not activated				
O=C(O)CN(CCN(CC(=O)O)CC(=O)O)CC(=O)O [EDTA]	104		24		greatly inhibited	20	greatly inhibited	98	not inhibited	not inhibited				
[Mn+2] [Mn^2+]	106		142		activated	111	activated	93						
OC[C@H]1O[C@H](OC[C@H]2OC(O)[C@H](O)[C@@H](O)[C@@H]2O)[C@H](O)[C@@H](O)[C@@H]1O (stereo partly shown) [Isomaltose, isomaltose]											−	−	++ (a saccharide-transferred product was detected in an amount of at least ten percent through transferring reaction to acceptor)	++ (a saccharide-transferred product was detected in an amount of at least ten percent through transferring reaction to acceptor)
[Mg+2] [Mg^2+]						100		91						
[Ba+2] [Ba^2+]	102		65		inhibited	65	inhibited	90						
O=C[C@H](O)[C@@H](O)[C@H](O[C@@H]1O[C@H](CO)[C@@H](O)[C@H](O)[C@H]1O)[C@H](O)CO [Cellobiose, cellobiose]											−	−	++ (a saccharide-transferred product was detected in an amount of at least ten percent through transferring reaction to acceptor)	++ (a saccharide-transferred product was detected in an amount of at least ten percent through transferring reaction to acceptor)
OC[C@H]1O[C@H](O[C@H]2O[C@H](CO)[C@@H](O)[C@H](O)[C@H]2O)[C@H](O)[C@@H](O)[C@@H]1O [Trehalose, α,α-trehalose]											−	−	++ (a saccharide-transferred product was detected in an amount of at least ten percent through transferring reaction to acceptor)	++ (a saccharide-transferred product was detected in an amount of at least ten percent through transferring reaction to acceptor)
OC[C@H]1O[C@@](CO)(O[C@H]2O[C@H](CO)[C@@H](O)[C@H](O)[C@H]2O)[C@@H](O)[C@@H]1O [Sucrose, sucrose]											−	−	++ (a saccharide-transferred product was detected in an amount of at least ten percent through transferring reaction to acceptor)	++ (a saccharide-transferred product was detected in an amount of at least ten percent through transferring reaction to acceptor)
